We go through 99 molecules from ChEMBL document CHEMBL3507680, “University of Dundee, Gates Library screen for HepG2 cell viability”.

The structures appear in SMILES notation.

A short description of the series: Human HepG2 cell viability assay in 384 well format. Also on record: dose 125 nL, time 70.5 hour; cytotoxicity at 70.5 h: concentration not given beside the values. The conditions noted are these: HepG2 cells, read-out: Inhibition. It counts as toxicity, cell-based.
In the case of `Cc1nnc(N(CCC#N)CCC#N)s1`, the cytotoxicity at 70.5 h was -5.52%.

`O=C(NCc1cccnc1)c1cn(CCc2ccccc2)nn1`: the cytotoxicity at 70.5 h was determined as 14%. With `CCC(C)(C)n1nnnc1C(c1cccs1)N1CCCCC1` (centres undefined), the cytotoxicity at 70.5 h was -3.15%.

For `COC(=O)c1sc2nc3c(c(C(F)(F)F)c2c1N)CN(C(C)=O)CC3`, the cytotoxicity at 70.5 h worked out at 5.62%. The value for `CSc1ccc(C2CC(=O)Nc3c2c(=O)[nH]c2ncnn32)cc1` (centres undefined) was 6.12%. Regarding `O=C(O)c1ccc2[nH]cc(CN3CCCC3)c2c1`, the cytotoxicity at 70.5 h stood at 6.43%.

Take `COc1ccc(-c2cnc(NC(C)=O)[nH]2)cc1`: the cytotoxicity at 70.5 h came to 10.1%.

Regarding `CC(=O)c1sc2nc3c(c(C(F)(F)F)c2c1N)CN(C(C)=O)CC3`, the cytotoxicity at 70.5 h is 8.25%. On to `O=C1CC(C2CCCCC2)c2c(n(C3CCCC3)[nH]c2=O)N1` (centres undefined), for which the cytotoxicity at 70.5 h amounted to 2.99%.

Take `CCOCCNS(=O)(=O)c1ccc2c3c1CCCN3C(=O)CO2`: the cytotoxicity at 70.5 h is 33.6%.

For the molecule `O=C1COc2ccc(S(=O)(=O)NCC3CCCO3)c3c2N1CCC3` (centres undefined), the cytotoxicity at 70.5 h was 1.71%. Take `O=C1COc2ccc(S(=O)(=O)NCc3ccccc3)c3c2N1CCC3`: the cytotoxicity at 70.5 h turned out to be 4.09%. `Cc1cc(NCCO)nc(N2CCN(C)CC2)c1C#N`: the cytotoxicity at 70.5 h was 1.33%. Regarding `Cc1nc(C#N)c(N2CCC(c3nc(-c4ccc(F)cc4)no3)CC2)o1`, the cytotoxicity at 70.5 h turned out to be 28.5%. `CC(C)N1C(=O)CC(N2CCN(c3ccc(F)cc3)CC2)C1=O` (centres undefined): the cytotoxicity at 70.5 h is 6.65%. On to `CNC(=O)c1sccc1N(C)S(=O)(=O)c1ccc(Cl)cc1`, for which the cytotoxicity at 70.5 h is 19.5%. The value for `CCNC(=O)c1sccc1N(C)S(=O)(=O)c1ccc(Cl)cc1` was 1.21%; that for `CN(C)CCNC(=O)c1sccc1N(C)S(=O)(=O)c1ccc(Cl)cc1` was -17.4%. As to `O=C(c1cc(-n2cnnn2)ccc1Cl)N1CCN(c2ccccc2)CC1`, the cytotoxicity at 70.5 h was -1.12%. For the molecule `CC(C)n1ncc2c1NC(=O)CC2c1ccccc1Cl` (centres undefined), the cytotoxicity at 70.5 h was -6.71%. On to `Cn1ncc2c1NC(=O)CC2c1c(Cl)cccc1Cl` (centres undefined), for which the cytotoxicity at 70.5 h is -16.4%.

For the molecule `Cc1cccc(NC(=O)c2nn(C3CCS(=O)(=O)C3)c3c2CCCC3)n1` (centres undefined), the cytotoxicity at 70.5 h was -27.2%. Then `Cn1ncc2c1NC(=O)CC2c1c(F)cccc1Cl` (centres undefined), with -5.11%; and `COc1cccc(C2SCC(=O)Nc3n[nH]cc32)c1OC(C)C` (centres undefined), with -20.4%; and `NC(=O)C1CCN(C(=O)c2cc(-n3cnnn3)ccc2Cl)CC1`, with -14.1%. Consider `COC(=O)CNC(=O)c1c(-n2cnnn2)sc2c1CCCC2`, for which the cytotoxicity at 70.5 h was -14.5%. Then `Oc1nc(N2CCCC2)nc2nccc(-c3ccccn3)c12`, with -22.4%; and `CC(C)CCn1[nH]c(CNc2ccc(F)cc2)nc1=O`, with -10.3%; and `Cn1ncc2c1NC(=O)CC2c1cc(Cl)ccc1F` (centres undefined), with 47.5%. Take `Cn1ncc2c1NC(=O)CC2c1ccccc1Br` (centres undefined): the cytotoxicity at 70.5 h is -12.4%.

In the case of `CC(C)CCn1nc(CNc2ccc(Br)cc2)nc1O`, the cytotoxicity at 70.5 h is -17.8%. `CNc1nc2c(s1)C(c1ccccc1F)CC(=O)N2` (centres undefined): the cytotoxicity at 70.5 h is 9.16%.

For `Cc1cc(O)c(OCC(=O)Nc2nc3c(s2)CCCC3)cn1`, the cytotoxicity at 70.5 h is -22.4%. Consider `Cc1cc(NC(=O)c2nn(C3CCS(=O)(=O)C3)c3c2CCCC3)no1` (centres undefined), for which the cytotoxicity at 70.5 h was -24.1%.

Turning to `CCc1c(C(=O)O)nnn1-c1cc(C)ccc1C`, the cytotoxicity at 70.5 h is -2.96%.

Consider `CCOc1cc(=O)n2c(c1C(=O)OCc1cccc(C)c1)CCCC2`, for which the cytotoxicity at 70.5 h is -11.3%.

As to `CCn1nccc1CNC(=O)C1CC1`, the cytotoxicity at 70.5 h was -10.1%. With `Cc1nn(C)c2c(NCc3ccccc3F)nc(C3CC3)nc12`, the cytotoxicity at 70.5 h was -5.5%.

For the molecule `Cc1nc(NCc2cccnc2)c2c(n1)c(C)nn2C`, the cytotoxicity at 70.5 h was -11.5%. The value for `Cc1ncc2c(n1)CCCC2NC(=O)c1ccncc1` (centres undefined) was 14.6%. For `O=C1CCOC[C@]2(CN(Cc3ccccc3)C[C@H]2c2ccccc2F)N1`, the cytotoxicity at 70.5 h is 1.5%.

Take `c1cnc(N2CCCC(c3csc(Nc4cnccn4)n3)C2)nc1` (centres undefined): the cytotoxicity at 70.5 h came out at 19.8%. With `CCCC(=O)N1CCC(Nc2nc(O)cc(-c3ccsc3)n2)CC1`, the cytotoxicity at 70.5 h is -3.98%. `O=C(C1CC1)N1CCC(Nc2nc(O)cc(-c3ccsc3)n2)CC1`: the cytotoxicity at 70.5 h was -8.33%. As for `CNC(=O)[C@@H]1CN(C(=O)COC)C[C@H]1c1ccnc(N2CCCC2)n1`, the cytotoxicity at 70.5 h is -5.21%. In the case of `COCCC(=O)NCc1ccc(-c2ccccc2C(=O)O)nc1`, the cytotoxicity at 70.5 h is -3.04%.

As for `CC(C)C(=O)NC(Cc1cc(N(C)C)nc(C2CC2)n1)c1ccccc1` (centres undefined), the cytotoxicity at 70.5 h turned out to be 3.43%. In the case of `Cc1nc(CCC(N)=O)cc(C2CCCCN2S(C)(=O)=O)n1` (centres undefined), the cytotoxicity at 70.5 h is -1.31%. `c1cc(C2CCN(c3cnccn3)CC2)ccn1`: the cytotoxicity at 70.5 h was found to be 17.3%. Take `Cc1nc(CN2CCCC2c2[nH]ncc2C(=O)N(C)C)cs1` (centres undefined): the cytotoxicity at 70.5 h is -2.79%. The value for `CN(C)c1ccc(C2CCN(c3cnccn3)CC2)nc1` was 6.87%; that for `Cc1nc(C)c(CC(=O)N2CCC(c3ccn4nccc4n3)CC2)s1` was -1.07%; that for `CC(C)N1CCCC(c2cc(C(F)(F)F)nc3nccn23)C1` (centres undefined) was -0.494%.

`CN1CCc2nnc(C3CCCN3S(=O)(=O)c3ccc(F)cc3)n2CC1` (centres undefined): the cytotoxicity at 70.5 h was -3.97%. `c1cnnc(N[C@@H]2CC[C@@H]3CN(Cc4ccc5[nH]ccc5c4)C[C@@H]32)c1`: the cytotoxicity at 70.5 h came to 2.98%. With `Cc1cc(N2CCC(O)(CN(C)C(=O)CCN)C2)c2cnccc2n1` (centres undefined), the cytotoxicity at 70.5 h is -4.6%.

As to `Cc1cc(N2CCC(O)(CN(C)C(=O)CCCN)C2)c2cnccc2n1` (centres undefined), the cytotoxicity at 70.5 h is -0.861%. Regarding `Cc1cn([C@H]2CCNC[C@]2(C)O)c(=O)[nH]c1=O`, the cytotoxicity at 70.5 h is 4.8%.

As for `CCN1CCCc2cc(CN3CCc4nc(C)[nH]c(=O)c4C3)ccc21`, the cytotoxicity at 70.5 h was -0.248%. Take `CCN1CCCc2cc(CN3CCc4c(nc(C)[nH]c4=O)C3)ccc21`: the cytotoxicity at 70.5 h was -3.71%. On to `Cc1cc(-c2ccc(=O)n(CCNC(=O)C3CCC3)n2)c(C)o1`, for which the cytotoxicity at 70.5 h was 15.6%. For the molecule `Cc1cc(-c2ccc(=O)n(CCNC(=O)C3CCCCC3)n2)c(C)o1`, the cytotoxicity at 70.5 h was -1.98%.

Consider `CN(C)c1nccc(C2CN(c3cnccn3)CCO2)n1` (centres undefined), for which the cytotoxicity at 70.5 h was 13.3%.

In the case of `Cc1nc(NCCN2CCCC2=O)cc(C2CN(C)CCO2)n1` (centres undefined), the cytotoxicity at 70.5 h is 1.86%.

On to `CCc1cc(=O)[nH]c(NC2CCN(S(=O)(=O)c3ccccc3)CC2)n1`, for which the cytotoxicity at 70.5 h was -7.53%. Then `Cc1ccc(-c2nc(C3CCN(C(=O)c4ccnn4C)CC3)no2)cn1`, with -7.4%. Then `O=C1CCC(c2nc(C3CCNCC3)no2)N1` (centres undefined), with -6.87%; and `O=C1CCC(c2nc(C3CCN(C(=O)C4CC4)CC3)no2)N1` (centres undefined), with -4.42%; and `Cn1cc(CN2CCc3nc4ccccc4c(=O)n3CC2)cn1`, with -1.93%. As for `Cc1cc(Nc2ccc(F)cn2)cc(C2CCCN2)n1` (centres undefined), the cytotoxicity at 70.5 h is -7.05%. Consider `CS(=O)(=O)N[C@@H]1CN(Cc2ccc3ccccc3c2)C[C@H]1O`, for which the cytotoxicity at 70.5 h was -2.76%. In the case of `O=C(NC[C@]1(O)CN(Cc2ncccc2F)C[C@H]1O)c1cc[nH]n1`, the cytotoxicity at 70.5 h was 21.3%. With `O=C(NC[C@]1(O)CCN(Cc2ccccc2F)C[C@H]1O)c1c[nH]cn1`, the cytotoxicity at 70.5 h was -0.237%. Consider `Cc1cncc(CN2CC[C@@](O)(CNC(=O)c3c[nH]cn3)[C@H](O)C2)c1`, for which the cytotoxicity at 70.5 h is -6.5%.

For `Cc1ocnc1C(=O)N(C)[C@@H]1CCC[C@@H](N2CCCC2)[C@@H]1O`, the cytotoxicity at 70.5 h was determined as 25.2%. Regarding `Cc1nccn1[C@@H]1CC[C@@H](NC(=O)CCCn2cccn2)[C@H]1O`, the cytotoxicity at 70.5 h came to 19.3%.

In the case of `Cc1noc(C)c1-c1nc(C2CCCN(C(=O)CCN)C2)ccc1CO` (centres undefined), the cytotoxicity at 70.5 h was -1.78%.

Consider `Cc1ocnc1C(=O)N(C)[C@@H]1CC[C@@H](n2ccnc2C)[C@@H]1O`, for which the cytotoxicity at 70.5 h is -7.34%. Turning to `Cc1noc(C)c1-c1nc(C2CCCN(C(=O)C(C)C)C2)ccc1CO` (centres undefined), the cytotoxicity at 70.5 h was -2.96%.

With `CN(C)CC1(O)CCN(C(=O)Cc2ccc3c(c2)CCCC3)C1` (centres undefined), the cytotoxicity at 70.5 h was -7%. Then `FC(F)(F)c1cc(C2CCN(c3cnccn3)CC2)n2ccnc2n1`, with -5.4%; and `CNC(=O)CNC(=O)c1ccc(-c2scnc2C)nc1`, with -0.926%. `Cc1cc(C(=O)N2CCCC(c3cc(=O)nc4n3CCC4)C2)on1` (centres undefined): the cytotoxicity at 70.5 h was -6.58%. Regarding `Nc1nccc(C2CCN(c3cnccn3)C2)n1` (centres undefined), the cytotoxicity at 70.5 h stood at 21.1%. In the case of `Cc1ccccc1OC1CCN(CC(=O)Nc2cn(C)nc2C)CC1`, the cytotoxicity at 70.5 h was -1.78%. `Cc1cc(C)n(CC(=O)N2CCC(c3ccn4nccc4n3)CC2)n1`: the cytotoxicity at 70.5 h came to 26.6%. As to `CCCN1CCC(c2cc(CCOc3ccc(C(F)(F)F)cc3)[nH]n2)C1` (centres undefined), the cytotoxicity at 70.5 h turned out to be 0.882%. With `CCC(C)NC(=O)c1cc(S(=O)(=O)N2CCCC2)c(C)s1` (centres undefined), the cytotoxicity at 70.5 h is -3.53%. For `Cc1cc(Nc2ccc(F)cn2)cc(C2CCN(Cc3ncc[nH]3)C2)n1` (centres undefined), the cytotoxicity at 70.5 h was -0.353%. Regarding `CC(=O)N1CCCC1c1nc(CN(C)C(=O)C(C)C)cc(N(C)C)n1` (centres undefined), the cytotoxicity at 70.5 h was -4.11%. Then `CO[C@@H]1CC[C@@H](NS(=O)(=O)c2cn(C)nc2C)[C@H]1O`, with -1.72%. As for `Cc1cc2ccccc2n1CCC(=O)N1CCN(C)CC1C(N)=O` (centres undefined), the cytotoxicity at 70.5 h was -2.15%.

For `CCNCc1ccc(OCc2ccc3c(c2)OCCO3)cc1`, the cytotoxicity at 70.5 h was found to be 22.5%. Take `c1cnc(Nc2cncc(C3CCCN3)n2)cn1` (centres undefined): the cytotoxicity at 70.5 h is -3.08%. The value for `CN(C)c1ncc(-c2cccc(C(N)=O)c2)c(C2CNCCO2)n1` (centres undefined) was -1.28%; that for `COc1ccc(-c2cnc(N(C)C)nc2C2CNCCO2)cc1` (centres undefined) was -4.32%.

`CN(C)c1ncc(-c2ccc(F)cc2)c(C2CNCCO2)n1` (centres undefined): the cytotoxicity at 70.5 h was -2.95%. Take `COc1ccc(CN(Cc2ccco2)Cc2[nH]cnc2C)c(OC)c1`: the cytotoxicity at 70.5 h was -8.31%. Then `COc1cccc(CN(Cc2ccco2)Cc2cnc(C)n2C)c1`, with 3.46%.
